In US20030095962A1, “Chimeric cell-surface receptors that undergo antigen-induced association” (priority 1997, published 2003):

Assays:
[1] = test system: Ba/HEL cells (Ba/F3 cells expressing VH/VL-EpoR chimeric receptors); experiment: Antigen-dependent growth of Ba/HEL cell clones (viable cell count, trypan blue); assay type: cell-based, mouse
Protocol: FIG. 3 is a graph showing the relation between the concentrations of antigen n a culture medium and cell growth rates. Clone G8 was obtained by transforming Ba/F3 cells with the VH/VL EpoR vector constructs and growing in the presence of antigen. In this experiment, separate cultures of Clone G8 was cultured with different constant amounts of the antigen HEL over a 5-day period. Cell proliferation was dose-dependent, and was inducible up to at least about 5 times the rate by including antigen in the culture medium.
The clones of Ba/HEL cells were cultured with various concentrations of HEL to measure the change of the cell number over time. HEL was added in the concentrations of 0, 0.005, 0.05 and 0.5 μg/ml to the RPMI 1640 medium containing 10% FBS, seeded Ba/HEL clones with the initial concentration of 5×10^3 ml, and measured the change in the number of viable cells over time by the cell count method using trypan blue.
Cell growth was conspicuously accelerated with as low as 5 ng/ml antigen. This concentration agrees with the detectable antigen concentration in the immunoassay based on VH/VL association of HyHEL-10 Fv (Ueda et al., Nature Biotech, 14, 1714-1718, 1996). Accordingly, antigen concentration can be measured, that is, immunoassay can be performed using the level of growth of this cell as an index.

Ba/F3 cells = experiment: Growth of Ba/F3 cells without expression vectors in HEL-containing medium without IL-3; assay type: cell-based, mouse; conditions: RPMI 1640, 10 μg/ml HEL, 10% FBS, no expression vectors introduced
Protocol: Two plasmids, PME-VHER and pME-VLER, produced in Example 1, were introduced into the cell line Ba/F3 which is derived from the interleukin-3 (IL-3) dependent mouse pro-B cells, by using electroporation method. The Ba/F3 cells (2×10^6) in the logarithmic growth period and 5 μg each of above plasmid DNAs linearized with the restriction enzyme KpnI were suspended in 100 μl HBS (Hanks' Buffered Saline: Nissui Pharmacy). Rectangular pulses, 500 volts/150 μsec, were applied 10 times using a gene introduction electric pulse generator (electrodes of 4 mm intervals, Bio-Rad). The cells was kept at room temperatures for five minutes, diluted in 4 ml RPMI 1640 culture media (Nissui Pharmacy) containing 400 μg/ml G418 (Sigma), 8 ng/ml mouse IL-3 (Genzyme) and 10% fetal bovine serum (FBS, Gibco), added into 24-well plates 1 ml each, and cultured for two weeks at 37° C. in the 5% CO2 humidified atmosphere. The resultant colonies were mixed and cultured for another three days in the same media 100 μl cell suspensions were diluted in 2 ml RPMI 1640 medium containing 10 μg/ml hen egg lysozyme (HEL, Seikagaku) and 10% FBS (Gibco) and were subcultured. The Ba/F3 cell line is known to be released from IL-3 dependency by the ectopic expression of the EPO receptor when EPO is added to the medium. […]

Substance: hen egg lysozyme [HEL]
- Cell growth in relation to the HEL concentration in the medium ([1]; Ba/HEL clone G8, similar results for all clones inspected): cell growth depends on the concentration of HEL
- Antigen concentration at which cell growth was conspicuously accelerated ([1]; Ba/HEL clones, RPMI 1640 with 10% FBS, HEL 0, 0.005, 0.05 and 0.5 μg/ml): ≤ 5 ng/mL
- Cell proliferation inducible by including antigen in the culture medium ([1]; Clone G8, different constant amounts of HEL over a 5-day period): at least 5 times the rate
- Growth of cells in HEL-containing medium (Ba/F3 cells): did not grow
